Source: ChEMBL document CHEMBL5465560, “Selectivity Literature for EUbOPEN Chemogenomic Library” (2024)

Tests used:
[1] = molecular target: T1, Dual specificity protein kinase TTK (Homo sapiens) (UniProt P33981); conditions: at 10 µM
T1 sequence (whole entry): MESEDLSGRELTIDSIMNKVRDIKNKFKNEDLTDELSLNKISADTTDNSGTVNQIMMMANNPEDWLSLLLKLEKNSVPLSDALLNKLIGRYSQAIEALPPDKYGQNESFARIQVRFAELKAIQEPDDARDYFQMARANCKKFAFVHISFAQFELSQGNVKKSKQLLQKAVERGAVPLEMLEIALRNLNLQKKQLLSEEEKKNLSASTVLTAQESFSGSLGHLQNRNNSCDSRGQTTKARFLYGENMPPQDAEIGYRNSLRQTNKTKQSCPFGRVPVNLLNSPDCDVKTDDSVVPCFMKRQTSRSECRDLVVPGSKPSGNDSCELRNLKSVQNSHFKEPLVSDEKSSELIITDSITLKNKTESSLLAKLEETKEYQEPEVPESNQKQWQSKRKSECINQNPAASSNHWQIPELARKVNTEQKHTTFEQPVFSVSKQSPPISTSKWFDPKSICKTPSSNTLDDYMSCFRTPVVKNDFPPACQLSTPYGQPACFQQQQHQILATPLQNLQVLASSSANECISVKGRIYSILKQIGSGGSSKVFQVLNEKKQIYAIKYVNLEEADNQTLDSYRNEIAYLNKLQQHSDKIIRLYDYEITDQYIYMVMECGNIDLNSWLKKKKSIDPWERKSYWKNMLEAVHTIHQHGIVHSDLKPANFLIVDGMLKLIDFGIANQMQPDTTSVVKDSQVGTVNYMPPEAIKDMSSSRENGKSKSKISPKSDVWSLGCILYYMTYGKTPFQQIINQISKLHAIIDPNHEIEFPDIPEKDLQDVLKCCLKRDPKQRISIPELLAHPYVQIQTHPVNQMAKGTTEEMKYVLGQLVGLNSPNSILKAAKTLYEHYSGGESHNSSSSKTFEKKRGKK

[2] = molecular target: T2, Serine/threonine-protein kinase TAO1 (Homo sapiens) (UniProt Q7L7X3); conditions: at 10 µM
T2 sequence (whole entry): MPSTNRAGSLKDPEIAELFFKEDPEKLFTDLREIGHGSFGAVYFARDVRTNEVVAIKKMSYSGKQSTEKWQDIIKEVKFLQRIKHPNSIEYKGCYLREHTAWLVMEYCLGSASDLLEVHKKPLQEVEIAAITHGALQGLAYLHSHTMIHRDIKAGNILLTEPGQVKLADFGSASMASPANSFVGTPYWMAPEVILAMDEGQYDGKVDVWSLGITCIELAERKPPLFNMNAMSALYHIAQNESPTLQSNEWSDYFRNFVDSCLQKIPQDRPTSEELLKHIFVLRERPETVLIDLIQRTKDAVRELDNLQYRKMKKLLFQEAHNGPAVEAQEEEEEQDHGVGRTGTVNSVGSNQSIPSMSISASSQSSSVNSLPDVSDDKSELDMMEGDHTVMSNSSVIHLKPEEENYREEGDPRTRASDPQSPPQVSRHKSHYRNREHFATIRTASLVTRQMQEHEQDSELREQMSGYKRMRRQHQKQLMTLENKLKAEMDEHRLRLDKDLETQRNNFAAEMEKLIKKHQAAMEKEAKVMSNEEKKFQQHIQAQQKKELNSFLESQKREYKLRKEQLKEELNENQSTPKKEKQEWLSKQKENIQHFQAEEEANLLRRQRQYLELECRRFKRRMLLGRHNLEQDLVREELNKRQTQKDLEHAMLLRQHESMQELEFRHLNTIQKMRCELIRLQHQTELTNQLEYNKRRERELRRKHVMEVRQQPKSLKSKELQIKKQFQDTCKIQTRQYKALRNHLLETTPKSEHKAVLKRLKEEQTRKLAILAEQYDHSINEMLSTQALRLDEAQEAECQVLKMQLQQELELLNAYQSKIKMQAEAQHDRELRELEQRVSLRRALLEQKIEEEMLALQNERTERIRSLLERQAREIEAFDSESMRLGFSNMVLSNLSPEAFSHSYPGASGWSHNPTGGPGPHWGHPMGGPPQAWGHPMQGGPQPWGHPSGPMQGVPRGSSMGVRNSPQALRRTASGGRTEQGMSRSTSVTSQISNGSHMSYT

[3] = molecular target: Phosphatidylinositol 3-kinase catalytic subunit type 3 (Homo sapiens, UniProt Q8NEB9); assay: Selectivity interaction (Kinase panel (Invitrogen)) EUB0000639a PIK3C3; conditions: at 200 nM
[4] = molecular target: Cyclin-dependent kinase 14 (Homo sapiens) (UniProt O94921); assay: Selectivity interaction (ActivX KiNativ screen (kinase selectivity in THP-1 cell lysates)) EUB0000639a CDK14; type: subcellular; conditions: lysate, at 0.04 µM
[5] = molecular target: Serine/threonine-protein kinase Nek6 (Homo sapiens) (UniProt Q9HC98); assay: Selectivity interaction (KinomeScan (DiscoverX)) EUB0000695a NEK6; conditions: at 100 nM
[6] = molecular target: Activin receptor type-2B (Homo sapiens) (UniProt Q13705); conditions: at 10 µM
[7] = molecular target: Myosin light chain kinase, smooth muscle (Homo sapiens, UniProt Q15746); conditions: at 10 µM
[8] = molecular target: Death-associated protein kinase 2 (Homo sapiens) (UniProt Q9UIK4); conditions: at 10 µM
[9] = molecular target: Phosphatidylinositol 4-kinase beta (Homo sapiens, UniProt Q9UBF8); assay: Selectivity interaction (KinomeScan (DiscoverX)) EUB0000655a PI4KB; conditions: at 10 µM
[10] = molecular target: Serine/threonine-protein kinase Chk2 (Homo sapiens) (UniProt O96017); assay: Selectivity interaction (ActivX KiNativ screen (ex vivo kinase selectivity in human PBMCs)) EUB0001619a CHEK2; type: cell-based; conditions: PBMC, at 1 µM
[11] = molecular target: Ribosomal protein S6 kinase beta-1 (Homo sapiens, UniProt P23443); assay: Selectivity interaction (KinomeScan (DiscoverX)) EUB0001619a RPS6KB1; conditions: at 1 µM
[12] = molecular target: Ribosomal protein S6 kinase alpha-2 (Homo sapiens) (UniProt Q15349); assay: Selectivity interaction (KinomeScan (DiscoverX)) EUB0001619a RPS6KA2; conditions: at 1 µM
[13] = molecular target: Interferon-induced, double-stranded RNA-activated protein kinase (Homo sapiens) (UniProt P19525); assay: Selectivity interaction (ActivX KiNativ screen (ex vivo kinase selectivity in human PBMCs)) EUB0001619a EIF2AK2; type: cell-based; conditions: PBMC, at 1 µM
[14] = molecular target: STE20/SPS1-related proline-alanine-rich protein kinase (Homo sapiens) (UniProt Q9UEW8); assay: Selectivity interaction (KinomeScan (DiscoverX)) EUB0000618a STK39; conditions: at 10 µM
[15] = molecular target: Mitogen-activated protein kinase kinase kinase kinase 5 (Homo sapiens) (UniProt Q9Y4K4); assay: Selectivity interaction (Kinase panel (KiNativ target engagement assay in Jurkat cells)) EUB0001635a MAP4K5; type: cell-based; conditions: Selectivity number of off-targets 0.0, Selectivity number of targets 233.0, Source Knowledge https://www.sciencedirect.com/science/article/pii/S2451945619300674?via%3Dihub, at 1 µM
Sequence of Mitogen-activated protein kinase kinase kinase kinase 5 (Homo sapiens) (Q9Y4K4 whole entry, looked up): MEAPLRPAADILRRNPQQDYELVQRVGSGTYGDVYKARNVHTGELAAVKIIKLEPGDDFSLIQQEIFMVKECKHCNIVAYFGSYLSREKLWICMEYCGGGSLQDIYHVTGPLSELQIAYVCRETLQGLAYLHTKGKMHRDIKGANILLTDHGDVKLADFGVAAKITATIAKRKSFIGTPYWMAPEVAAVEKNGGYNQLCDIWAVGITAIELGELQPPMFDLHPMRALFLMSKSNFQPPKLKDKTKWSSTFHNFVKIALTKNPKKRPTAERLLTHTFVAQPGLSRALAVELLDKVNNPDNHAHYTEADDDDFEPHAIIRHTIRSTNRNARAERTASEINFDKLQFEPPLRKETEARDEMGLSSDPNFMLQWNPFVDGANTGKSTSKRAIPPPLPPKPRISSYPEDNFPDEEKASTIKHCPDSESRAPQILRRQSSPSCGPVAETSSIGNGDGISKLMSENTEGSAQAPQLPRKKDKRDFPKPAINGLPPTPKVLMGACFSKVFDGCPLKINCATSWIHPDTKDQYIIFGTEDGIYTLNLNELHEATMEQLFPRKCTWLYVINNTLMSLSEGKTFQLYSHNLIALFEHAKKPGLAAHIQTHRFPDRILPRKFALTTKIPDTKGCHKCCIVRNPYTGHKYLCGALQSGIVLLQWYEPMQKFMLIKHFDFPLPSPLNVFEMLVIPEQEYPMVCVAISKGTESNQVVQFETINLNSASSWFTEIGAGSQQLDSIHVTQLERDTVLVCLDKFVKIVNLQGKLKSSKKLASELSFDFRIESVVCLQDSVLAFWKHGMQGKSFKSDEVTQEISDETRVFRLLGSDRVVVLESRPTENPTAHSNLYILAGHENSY

Sequence of Cyclin-dependent kinase 14 (Homo sapiens) (O94921 whole entry): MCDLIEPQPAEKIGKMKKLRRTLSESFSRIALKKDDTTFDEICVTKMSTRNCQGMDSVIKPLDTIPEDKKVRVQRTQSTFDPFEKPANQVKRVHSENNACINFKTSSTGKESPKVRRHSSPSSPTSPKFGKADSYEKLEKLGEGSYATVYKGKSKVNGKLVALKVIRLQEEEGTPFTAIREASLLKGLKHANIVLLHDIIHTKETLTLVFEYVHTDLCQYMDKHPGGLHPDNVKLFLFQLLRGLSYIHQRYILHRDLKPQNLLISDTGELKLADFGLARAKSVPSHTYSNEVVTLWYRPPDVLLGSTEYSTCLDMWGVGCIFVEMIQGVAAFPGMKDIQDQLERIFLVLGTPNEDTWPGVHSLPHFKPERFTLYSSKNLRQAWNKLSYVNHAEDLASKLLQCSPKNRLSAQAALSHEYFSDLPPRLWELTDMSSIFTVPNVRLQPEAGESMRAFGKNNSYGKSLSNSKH
Sequence of Activin receptor type-2B (Homo sapiens) (Q13705 whole entry): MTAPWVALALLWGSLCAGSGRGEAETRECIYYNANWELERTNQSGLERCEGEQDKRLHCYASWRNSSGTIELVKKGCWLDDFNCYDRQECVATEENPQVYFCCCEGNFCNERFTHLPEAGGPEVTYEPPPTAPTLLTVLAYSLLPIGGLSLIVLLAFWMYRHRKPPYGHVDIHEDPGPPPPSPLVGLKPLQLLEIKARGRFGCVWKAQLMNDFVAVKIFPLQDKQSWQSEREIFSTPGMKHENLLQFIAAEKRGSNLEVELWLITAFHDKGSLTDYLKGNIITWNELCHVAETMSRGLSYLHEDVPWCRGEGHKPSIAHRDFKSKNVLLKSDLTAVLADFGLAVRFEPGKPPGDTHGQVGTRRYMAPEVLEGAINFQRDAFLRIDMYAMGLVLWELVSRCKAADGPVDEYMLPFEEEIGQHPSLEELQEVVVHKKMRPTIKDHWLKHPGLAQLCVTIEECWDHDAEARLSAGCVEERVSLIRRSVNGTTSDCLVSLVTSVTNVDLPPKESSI
Sequence of Phosphatidylinositol 3-kinase catalytic subunit type 3 (Q8NEB9 whole entry): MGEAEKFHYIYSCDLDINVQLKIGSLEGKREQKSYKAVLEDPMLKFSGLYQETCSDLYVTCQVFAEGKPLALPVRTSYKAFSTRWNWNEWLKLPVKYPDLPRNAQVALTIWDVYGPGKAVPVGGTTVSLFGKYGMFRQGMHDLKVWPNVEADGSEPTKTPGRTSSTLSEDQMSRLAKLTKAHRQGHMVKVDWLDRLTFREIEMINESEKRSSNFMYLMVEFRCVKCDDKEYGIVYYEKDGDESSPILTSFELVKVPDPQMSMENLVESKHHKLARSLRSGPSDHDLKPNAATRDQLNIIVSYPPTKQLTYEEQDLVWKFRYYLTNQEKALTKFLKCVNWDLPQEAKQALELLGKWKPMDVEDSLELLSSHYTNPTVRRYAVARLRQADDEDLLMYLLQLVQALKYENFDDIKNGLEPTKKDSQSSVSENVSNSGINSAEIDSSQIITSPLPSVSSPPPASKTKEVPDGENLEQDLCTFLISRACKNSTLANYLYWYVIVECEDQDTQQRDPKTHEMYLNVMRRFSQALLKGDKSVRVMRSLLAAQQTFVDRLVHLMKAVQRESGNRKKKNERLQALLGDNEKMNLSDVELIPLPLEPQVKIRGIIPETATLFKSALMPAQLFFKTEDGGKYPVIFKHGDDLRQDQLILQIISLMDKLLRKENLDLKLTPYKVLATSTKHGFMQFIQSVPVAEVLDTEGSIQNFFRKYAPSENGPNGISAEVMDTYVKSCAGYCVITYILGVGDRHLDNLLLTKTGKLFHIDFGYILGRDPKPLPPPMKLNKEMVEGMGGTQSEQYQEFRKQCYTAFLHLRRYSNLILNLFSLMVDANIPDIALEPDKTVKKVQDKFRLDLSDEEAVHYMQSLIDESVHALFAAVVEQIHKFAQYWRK
Sequence of Serine/threonine-protein kinase Chk2 (Homo sapiens) (O96017 whole entry): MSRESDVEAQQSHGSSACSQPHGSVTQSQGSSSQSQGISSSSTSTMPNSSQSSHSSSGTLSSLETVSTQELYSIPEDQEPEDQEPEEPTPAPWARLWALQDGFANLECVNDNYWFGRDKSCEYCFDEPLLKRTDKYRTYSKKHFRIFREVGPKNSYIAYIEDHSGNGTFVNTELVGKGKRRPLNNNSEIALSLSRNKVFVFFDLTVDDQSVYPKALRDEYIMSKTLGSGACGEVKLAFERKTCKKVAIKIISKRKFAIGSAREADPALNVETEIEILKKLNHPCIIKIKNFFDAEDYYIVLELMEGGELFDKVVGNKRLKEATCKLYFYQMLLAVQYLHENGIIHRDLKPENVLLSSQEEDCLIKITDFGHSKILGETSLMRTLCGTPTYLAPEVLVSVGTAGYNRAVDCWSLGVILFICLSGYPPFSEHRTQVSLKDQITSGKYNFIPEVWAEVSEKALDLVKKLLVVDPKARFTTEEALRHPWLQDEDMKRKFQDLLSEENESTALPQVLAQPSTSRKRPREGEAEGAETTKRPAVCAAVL
Sequence of Ribosomal protein S6 kinase beta-1 (P23443 whole entry, looked up): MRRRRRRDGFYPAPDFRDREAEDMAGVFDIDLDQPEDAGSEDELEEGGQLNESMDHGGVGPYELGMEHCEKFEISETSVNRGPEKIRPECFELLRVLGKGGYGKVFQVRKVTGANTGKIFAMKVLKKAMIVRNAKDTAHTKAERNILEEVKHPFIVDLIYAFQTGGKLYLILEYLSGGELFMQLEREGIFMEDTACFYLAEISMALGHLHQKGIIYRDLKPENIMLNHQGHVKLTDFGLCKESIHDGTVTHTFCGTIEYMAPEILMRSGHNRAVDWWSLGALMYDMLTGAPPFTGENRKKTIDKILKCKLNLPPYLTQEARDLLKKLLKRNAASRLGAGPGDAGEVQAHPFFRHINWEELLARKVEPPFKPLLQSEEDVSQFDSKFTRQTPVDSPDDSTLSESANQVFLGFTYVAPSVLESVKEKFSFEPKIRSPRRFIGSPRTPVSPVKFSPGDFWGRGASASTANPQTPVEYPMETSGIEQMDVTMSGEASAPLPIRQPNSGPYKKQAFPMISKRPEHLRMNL
Sequence of Phosphatidylinositol 4-kinase beta (Q9UBF8 2-816 limits assumed): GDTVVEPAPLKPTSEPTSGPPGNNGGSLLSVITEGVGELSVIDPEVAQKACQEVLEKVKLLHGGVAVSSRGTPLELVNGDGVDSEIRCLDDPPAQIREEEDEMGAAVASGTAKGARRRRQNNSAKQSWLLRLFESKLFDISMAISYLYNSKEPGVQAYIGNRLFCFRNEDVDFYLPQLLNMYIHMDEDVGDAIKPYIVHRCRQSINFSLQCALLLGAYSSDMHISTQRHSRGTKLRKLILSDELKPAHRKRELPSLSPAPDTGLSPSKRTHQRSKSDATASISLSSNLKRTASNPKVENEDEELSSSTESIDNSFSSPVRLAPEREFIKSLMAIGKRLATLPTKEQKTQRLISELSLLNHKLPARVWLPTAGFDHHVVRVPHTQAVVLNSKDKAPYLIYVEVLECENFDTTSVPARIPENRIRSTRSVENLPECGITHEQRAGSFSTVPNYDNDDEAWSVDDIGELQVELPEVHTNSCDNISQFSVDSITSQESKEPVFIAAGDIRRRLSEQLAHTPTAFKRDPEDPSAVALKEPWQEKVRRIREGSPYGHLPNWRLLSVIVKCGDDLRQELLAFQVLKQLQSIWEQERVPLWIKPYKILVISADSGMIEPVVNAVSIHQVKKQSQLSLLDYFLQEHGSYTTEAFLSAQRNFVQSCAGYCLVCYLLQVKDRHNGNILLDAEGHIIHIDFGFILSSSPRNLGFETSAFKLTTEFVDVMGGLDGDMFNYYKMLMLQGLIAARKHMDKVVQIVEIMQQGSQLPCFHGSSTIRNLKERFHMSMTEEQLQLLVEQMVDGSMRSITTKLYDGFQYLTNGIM
Sequence of Death-associated protein kinase 2 (Homo sapiens) (Q9UIK4 whole entry, looked up): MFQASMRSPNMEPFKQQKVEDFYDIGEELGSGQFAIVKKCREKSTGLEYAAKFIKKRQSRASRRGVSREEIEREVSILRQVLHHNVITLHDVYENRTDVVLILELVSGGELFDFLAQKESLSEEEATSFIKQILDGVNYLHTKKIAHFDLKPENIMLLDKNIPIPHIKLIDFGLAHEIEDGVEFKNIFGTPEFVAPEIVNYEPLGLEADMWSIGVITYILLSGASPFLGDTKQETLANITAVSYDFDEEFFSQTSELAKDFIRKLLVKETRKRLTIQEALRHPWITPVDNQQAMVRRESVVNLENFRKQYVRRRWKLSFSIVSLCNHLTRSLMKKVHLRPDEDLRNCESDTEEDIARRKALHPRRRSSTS

Q: For Cc1cc([C@@H](C)Nc2ccccc2C(=O)O)c2nc(N3CCOCC3)cc(=O)n2c1 [AZD-6482], which % of control [1] is on record?
A: The % of control was 100%.

Q: What about the % of control [2] of the same compound?
A: The % of control was 59%.

Q: CC[C@@H]1[C@H](F)C(=O)N[C@@H]1COc1nccc2cc(C(N)=O)c(OC)cc12 [ZIMLOVISERTIB] was tested. Which % of inhibition [3] did it give?
A: Its % of inhibition is -5.2%.

Q: What about the % of inhibition [4] of the same compound?
A: The % of inhibition was 5.5%.

Q: With Cc1cc(F)c(C(=O)Nc2cccc(-c3nncn3C(C)C)n2)cc1-n1cnc(C2CC2)c1 as the compound, how does the % of control [5] read?
A: Its % of control is 100%.

Q: Which % of control [6] does the source give for CCN(CC)CCCCNc1ncc2cc(-c3cc(OC)cc(OC)c3)c(NC(=O)NC(C)(C)C)nc2n1 here?
A: Its % of control is 100%.

Q: What about the % of control [7] of the same compound?
A: The % of control was 100%.

Q: With COCC(=O)NC/C=C/c1ccc2ncnc(Nc3ccc(Oc4ccc(C)nc4)c(C)c3)c2c1 [CP-724714] as the compound, how does the % of control [8] read?
A: The % of control was 89%.

Q: Which % of control [9] does the source give for CN(C)CCOc1ccc(-c2nc(-c3ccncc3)c(-c3ccc4c(c3)CC/C4=N\O)[nH]2)cc1 here?
A: The % of control was 88%.

Q: What does the source list for N#Cc1cccc(-c2c[nH]c3ncnc(N4CCOCC4)c23)c1?
A: % of inhibition [10]: 2%; % of control [11]: 100%; % of control [12]: 100%; % of inhibition [13]: 7%

Q: Which % of control [14] does the source give for O[C@H]1CC[C@H](Nc2ncc3nc(Nc4c(F)cc(F)cc4F)n([C@H]4CCOC4)c3n2)CC1 here?
A: The % of control was 100%.

Q: With C=CC(=O)Nc1ccc(C(=O)Nc2[nH]nc3c2CN(C(=O)N[C@H](CN(C)C)c2ccccc2)C3(C)C)cc1 as the compound, how does the % of engagement [15] read?
A: The % of engagement was 1.1%.
